Measurements as given in the NIST ThermoML archive (doi:10.1016/j.jct.2011.12.024).

Columns and labels:
[1] = refractive index (other wavelength) (dimensionless); settings: 101.33 kPa, Liquid, Wavelength=632.8 nm, Standard Abbe refractometry
[2] = 101.33 kPa, Liquid, Vibrating tube method
[3] = refractive index (other wavelength) (dimensionless); xn = mol fraction of the nth substance listed; settings: 101.33 kPa, Liquid, Wavelength=632.8 nm, Standard Abbe refractometry

CCCCCC [hexane]
[1]
Settings	refractive index
283.72 K	1.3789
284.52 K	1.3785
285.35 K	1.3781
286.21 K	1.3776
287.1 K	1.3771
287.94 K	1.3767
288.71 K	1.3762

COC(=O)CCCCC(=O)OC [dimethyl 1,6-hexanedioate]
Settings	mass density [kg/m3]	refractive index
[1], 283.48 K	–	1.4312
[1], 284.37 K	–	1.4309
[1], 285.28 K	–	1.4305
[1], 286.1 K	–	1.4302
[1], 286.92 K	–	1.4298
[1], 287.65 K	–	1.4296
[1], 288.49 K	–	1.4292
[2], 281.15 K	1073.09	–
[2], 282.15 K	1072.12	–
[2], 283.15 K	1071.14	–
[2], 284.15 K	1070.17	–
[2], 285.15 K	1069.19	–
[2], 286.15 K	1068.21	–
[2], 287.15 K	1067.24	–
[2], 288.15 K	1066.26	–
[2], 289.15 K	1065.29	–
[2], 290.15 K	1064.32	–
[2], 291.15 K	1063.34	–
[2], 292.15 K	1062.37	–
[2], 293.15 K	1061.39	–
[2], 294.15 K	1060.42	–
[2], 295.15 K	1059.45	–
[2], 296.15 K	1058.47	–
[2], 297.15 K	1057.5	–
[2], 298.15 K	1056.52	–
[2], 299.15 K	1055.55	–
[2], 300.15 K	1054.58	–
[2], 301.15 K	1053.6	–
[2], 302.15 K	1052.63	–
[2], 303.15 K	1051.65	–
[2], 304.15 K	1050.68	–
[2], 305.15 K	1049.7	–
[2], 306.15 K	1048.73	–
[2], 307.15 K	1047.75	–
[2], 308.15 K	1046.78	–

COC(=O)CCCCC(=O)OC [dimethyl 1,6-hexanedioate] + CCCCCC
[3], 289.28 K
Settings	refractive index
x1 = 0.101	1.3821
x1 = 0.202	1.3884
x1 = 0.301	1.3944
x1 = 0.394	1.3998
x1 = 0.5	1.4056
x1 = 0.599	1.4107
x1 = 0.706	1.416
x1 = 0.799	1.4203
x1 = 0.882	1.4239

CCCCCCC [heptane] + COC(=O)CCCCC(=O)OC
[3], x2 = 0
Settings	refractive index
289.62 K	1.3883
290.68 K	1.3878
291.71 K	1.3873
292.7 K	1.3868
293.74 K	1.3863
294.71 K	1.3858
295.77 K	1.3853
